The target of the experiment is T1, naphthalene 1,2-dioxygenase (NDO; ISPNAR) from Rhodococcus sp. strain NCIMB12038 (Rhodococcus sp. NCIMB 12038, UniProt Q9X3R9).
T1 construct: gene narAa; native oxygenase component purified from naphthalene-grown Rhodococcus cells; alpha3beta3; Rieske [2Fe-2S] and mononuclear iron; with Naphthalene 1,2-dioxygenase small (beta) subunit
T1 sequence (Q9X3R9 1-470): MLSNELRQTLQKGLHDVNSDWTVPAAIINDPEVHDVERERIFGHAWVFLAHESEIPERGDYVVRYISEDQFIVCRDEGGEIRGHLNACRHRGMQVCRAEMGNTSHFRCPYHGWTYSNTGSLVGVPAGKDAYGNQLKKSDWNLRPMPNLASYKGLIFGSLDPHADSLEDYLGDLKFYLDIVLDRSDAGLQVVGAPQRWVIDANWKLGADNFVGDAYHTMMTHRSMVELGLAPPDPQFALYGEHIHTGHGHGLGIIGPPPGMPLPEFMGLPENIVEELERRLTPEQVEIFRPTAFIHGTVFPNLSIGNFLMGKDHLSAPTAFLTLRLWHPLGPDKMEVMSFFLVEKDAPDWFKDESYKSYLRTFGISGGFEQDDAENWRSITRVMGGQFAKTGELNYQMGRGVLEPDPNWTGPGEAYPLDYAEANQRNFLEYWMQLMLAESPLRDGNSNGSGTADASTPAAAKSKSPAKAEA
T1 sequence (Q7BSK6 1-172 partner): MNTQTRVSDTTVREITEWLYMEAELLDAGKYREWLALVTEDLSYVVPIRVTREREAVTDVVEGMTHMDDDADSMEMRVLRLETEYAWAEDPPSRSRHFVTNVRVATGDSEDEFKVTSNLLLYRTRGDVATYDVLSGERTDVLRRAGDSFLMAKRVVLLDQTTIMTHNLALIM
Kind of experiment: EPR ([…] K) and UV-Vis of single turnover and peroxide shunt. Format: binding. To be noted: dithionite-reduced NDO with O2-saturated naphthalene, or H2O2 peroxide shunt; no reductase or ferredoxin; 50 mM Tris-HCl pH 7.8, 10% ethanol, 10% glycerol, 0.5 mM DTT.

On to `c1ccc2ccccc2c1` [naphthalene], for which the “EPR (20 K) and UV-Vis of single turnover and peroxide shunt” value is “NDO, with reduced Rieske and mononuclear iron centres, is able to react with naphthalene”.

The record behind these values is PMC6678576, “Spectroscopic Characterisation of the Naphthalene Dioxygenase from Rhodococcus sp. Strain NCIMB12038” (International Journal of Molecular Sciences, 2019).
